Measured values as given in US11633485B2, “Cleavable esters for nanocarrier-based cancer therapy” (priority 2017, dated 2023).

What was measured:
[1] = Acid strength (pKa) of the ester-forming acid of model compounds; format: physicochemical; settings: pKa of the acid forming the ester bond
Excerpt: Table 1 illustrates the effect of acid strength on rate of hydrolytic cleavage for several model compounds.

[2] = test system: MYCN-amplified NB cells (IMR-32, ATCC CCL-127); assay: Antiproliferative effect of co-drug loaded nanoparticles on neuroblastoma cells; format: cell-based; settings: IMR-32 cells, doses equivalent to 5-20 ng SN-22 per well, 96-well plates
Method: Blank NP were used as a negative control, and unmodified SN-22, diluted in cell culture medium from a DMSO stock, was used as a positive control.
Cell growth curves of NB cells treated with co-drug loaded nanoparticles at doses corresponding to 5 ng SN-22 per well (96-well plates) for 24 hours are shown in comparison to “no treatment”, drug-free nanoparticles and free SN-22 (upper panel). Cell growth inhibition (%) determined 6 days post-treatment is shown for co-drug loaded and drug-free (control) nanoparticles as a function of dose and exposure duration (lower panel).

[3] = Release studies of co-drug loaded nanoparticles, external sink method; format: physicochemical; settings: sink conditions, 37° C., acceptor medium heptane/methyl tert-butyl ether 1:1 v/v
Method: Release samples were also analyzed by TLC (right panel). […] (lane 3 vs. 2). Free SN-22 is included in lane 1.

Compound	Acid pKa [1]	other results
CCOC(=O)COC(C)=O [CH3COOCH2COOEt]	2.7	
CCOC(C)=O [CH3COOEt]	4.7	
CCOC(=O)C(=O)NC [CH3NHCOCOEt]	1.8	
CCOC(=O)COC [CH3OCH2COOEt]	3.6	
CCc1c2c(nc3ccccc13)-c1cc3c(c(=O)n1C2)COC(=O)[C@]3(O)CC [SN-22, 7-ethylcamptothecin]		Cell growth / proliferation inhibition [2]: fully inhibited cell growth
SN-22 ester of tocopheryl oxyacetic acid [SN22-TOAc]		Release rate from nanoparticles [3]: more stable retention
